Paper PMC9377236, “Cytotoxic effects of extracts obtained from plants of the Oleaceae family: bio-guided isolation and molecular docking of new secoiridoids from Jasminum humile” (Pharmaceutical Biology, 2022)
Converted amounts (≈) assume the structure as drawn.

Key:
HepG-2 cell line = experiment: MTT cytotoxicity assay, HepG-2; type: cell-based, human; settings: for IC50: Homo sapiens, HepG2, HepG-2 liver cancer cell line, MTT assay, mean ± SD; for SI, HepG-2: selectivity index = CC50 (Vero) / IC50 (HepG-2)
Protocol: (§1) The cytotoxic potential was measured against Vero cells as well as MCF-7, HepG-2, and THP-1 cell lines provided from VACSERA, Agouza, Cairo, Egypt using a microplate 3-(4,5-dimethythiazole-2yl)-2,5-diphenyl-tetrazolium bromide (MTT) method (Ashour et al. [2006]; Njeru and Muema [2007]). All experiments were repeated three times with doxorubicin (Sigma, USA) as a positive control and 0.1% DMSO media as the negative control, respectively.
(§2) The selectivity index (SI) was obtained after dividing the IC50 value of Vero cells (which can be expressed as CC50) by the specific IC50 of cancer cell lines. High (SI) indicates high anticancer activity and low cellular toxicity. Selectivity was considered to be valuable for those with (SI) greater than three (Oliveira et al. [2015]; Tsemeugne et al. [2021]; Yousefbeyk et al. [2022]).
(§3) All statistical analyses were performed using GraphPad Prism version 9.2.0 to calculate the half-maximal inhibitory concentration (IC50) and the half-maximal cytotoxic concentration (CC50) where the level of significance was set at ([…]). Quantitative data were expressed as mean ± standard deviation (SD). GraphPad Prism version 9.2.0 was also used to create multiple bar charts of the cytotoxic activity and cell viability.

[1] = MTT assay, cytotoxic concentration (CC50) on Vero cells; type: cell-based; settings: African green monkey, mean ± SD, three repeats
Protocol: as §1, §3

MCF-7 cell line = experiment: MTT cytotoxicity assay, MCF-7; type: cell-based, human; settings: for IC50: Homo sapiens, MCF7, MCF-7 breast cancer cell line, MTT assay, mean ± SD; for SI, MCF-7: selectivity index = CC50 (Vero) / IC50 (MCF-7)
Protocol: as §1, §2, §3

THP-1 cell line = experiment: MTT cytotoxicity assay, THP-1; type: cell-based, human; settings: for IC50: Homo sapiens, THP-1 leukaemia cell line, MTT assay, mean ± SD; for SI, THP-1: selectivity index = CC50 (Vero) / IC50 (THP-1)
Protocol: as §1, §2, §3

Row | SMILES | IC50 (HepG-2 cell line) [µg/mL] | SI, HepG-2 (HepG-2 cell line) | CC50 [1] [µg/mL] | IC50 (MCF-7 cell line) [µg/mL] | SI, MCF-7 (MCF-7 cell line) | IC50 (THP-1 cell line) [µg/mL] | SI, THP-1 (THP-1 cell line)
1 | CC=C1C(OC2OC(CO)C(O)C(O)C2O)OC=C(C(=O)OC)C1CC(=O)OCC(C)C1CC2OC(=O)C3=COC(OC4OC(CO)C(O)C(O)C4O)C(=CC)C3CC(=O)OCC1C2C (centres unmarked) [Compound 5, jasmoside] | 66.5 ± 8.15 (≈ 71.6 µM) | 3.16 | 210 ± 5.05 (≈ 226 µM) | 41.3 ± 1.77 (≈ 44.5 µM) | 5.09 | 27.6 ± 4.63 (≈ 29.7 µM) | 7.62
2 | CC=C1C(OC)OC=C2C(=O)OC3CC(C(C)CO)C(COC(=O)CC21)C3C (single isomer, unassigned; (-)) [Compound 1, (-)-1-Methoxyjasmigenin] | 59.8 ± 1.45 (≈ 152 µM) | 1.03 | 61.7 ± 1.26 (≈ 156 µM) | 78.9 ± 1.79 (≈ 200 µM) | 0.78 | 91.5 ± 14.9 (≈ 232 µM) | 0.67
3 | CC(CO)C1CC2OC(=O)C3=COC(C)C(C=O)C3CC(=O)OCC1C2C (single isomer, unassigned; (-)) [Compound 2, (-)-1-Methyl-9-aldojasmigenin] | 43.3 ± 4.78 (≈ 114 µM) | 1.40 | 60.5 ± 2.72 (≈ 159 µM) | 60.6 ± 2.3 (≈ 159 µM) | 1.00 | 68.9 ± 9.71 (≈ 181 µM) | 0.88
4 | CC=C1C(OC2OC(CO)C(O)C(O)C2O)OC=C2C(=O)OCC(C)C3(O)CCC(C)C3COC(=O)CC21 (centres unmarked) [Compound 4, isojasminin] | 33.5 ± 2.32 (≈ 61.7 µM) | 3.03 | 102 ± 3.03 (≈ 187 µM) | 43.1 ± 3.02 (≈ 79.5 µM) | 2.35 | 51.1 ± 10.3 (≈ 94.1 µM) | 1.99
5 | O=c1ccc2ccccc2o1 [Compound 6, coumarin] | 165 ± 7.08 (≈ 1130 µM) | 1.19 | 196 ± 13.3 (≈ 1340 µM) | 194 ± 8.8 (≈ 1330 µM) | 1.01 | 296 ± 25.7 (≈ 2020 µM) | 0.66
6 | OC[C@@H](O)[C@@H](O)[C@H](O)[C@H](O)CO [Compound 7, D-mannitol] | 69.1 ± 12.3 (≈ 379 µM) | 2.52 | 173 ± 6.2 (≈ 951 µM) | 161 ± 11.9 (≈ 882 µM) | 1.09 | 214 ± 22.1 (≈ 1180 µM) | 0.81
7 | COc1cccc2c1C(=O)c1c(O)c3c(c(O)c1C2=O)C[C@@](O)(C(=O)CO)C[C@@H]3O[C@H]1C[C@H](N)[C@H](O)[C@H](C)O1 [Doxorubicin, doxorubicin, reference compound] | 31.6 ± 6.58 (≈ 58.2 µM) | 3.65 | 116 ± 6.1 (≈ 213 µM) | 52.8 ± 5.36 (≈ 97.1 µM) | 2.19 | 47.8 ± 7.03 (≈ 88 µM) | 2.41
8 | CC=C1C(OC2OC(CO)C(O)C(O)C2O)OC=C2C(=O)OC3CC(C(C)CO)C(COC(=O)CC21)C3C (centres unmarked) [Compound 3, jasminin] | 44.2 ± 4.32 (≈ 81.5 µM) | 1.01 | 44.7 ± 1.84 (≈ 82.4 µM) | 28.6 ± 1.18 (≈ 52.7 µM) | 1.57 | 82.7 ± 15.7 (≈ 152 µM) | 0.54
